Reference: ChEMBL document CHEMBL1201862, “PubChem BioAssay data set” (2004)
The source made the active and inactive calls. Rule as the data show it: actives have a measured IC50 and inactives only a lower limit.

Target: Envelope glycoprotein gp160 (Human immunodeficiency virus 1, UniProt Q6QLK5)
Assay: cell-free HIV fusion peptide-binding blockers – biochemical, uHTS, fluorescence dequenching, […] (AID 1986)

Sequence of Envelope glycoprotein gp160 (Q6QLK5 whole entry, the tested form may be a part): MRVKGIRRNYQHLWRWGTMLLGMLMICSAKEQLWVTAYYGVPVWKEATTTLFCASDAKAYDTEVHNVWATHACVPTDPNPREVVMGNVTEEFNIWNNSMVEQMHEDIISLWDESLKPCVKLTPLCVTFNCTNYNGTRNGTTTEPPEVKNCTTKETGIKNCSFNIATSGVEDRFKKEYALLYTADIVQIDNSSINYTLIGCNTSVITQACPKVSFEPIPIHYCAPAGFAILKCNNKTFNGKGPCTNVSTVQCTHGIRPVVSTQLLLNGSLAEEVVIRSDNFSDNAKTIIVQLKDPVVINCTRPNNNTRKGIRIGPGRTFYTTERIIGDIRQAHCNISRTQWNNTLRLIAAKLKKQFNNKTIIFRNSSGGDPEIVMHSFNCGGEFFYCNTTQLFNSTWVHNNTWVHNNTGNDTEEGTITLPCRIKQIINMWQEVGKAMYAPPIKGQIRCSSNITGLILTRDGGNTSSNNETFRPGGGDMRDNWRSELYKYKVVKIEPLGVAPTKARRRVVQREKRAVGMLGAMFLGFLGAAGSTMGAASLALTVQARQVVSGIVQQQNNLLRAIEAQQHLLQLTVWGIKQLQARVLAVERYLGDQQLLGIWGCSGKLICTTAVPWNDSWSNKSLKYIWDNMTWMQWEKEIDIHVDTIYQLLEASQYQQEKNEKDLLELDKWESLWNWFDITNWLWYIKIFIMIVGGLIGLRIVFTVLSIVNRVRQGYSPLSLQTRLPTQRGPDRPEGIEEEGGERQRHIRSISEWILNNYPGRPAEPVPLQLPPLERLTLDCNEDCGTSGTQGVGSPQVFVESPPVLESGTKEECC

**Q.** O=C(COc1ccc(Cl)cc1Cl)Nc1ccc(C(=O)Nc2ccccc2C(=O)O)cc1 was tested. Which IC50 did it give?
**A.** 9.54 µM (active)

**Q.** For COc1cc(NS(=O)(=O)c2ccc(NC(=S)NC(=O)c3sc4ccccc4c3Cl)cc2)nc(OC)n1, which IC50 is on record?
**A.** 16.5 µM (active)

**Q.** For CC(C)S(=O)(=O)C1=NSC2=NC(=O)/C(=C\c3ccc(-c4cccc(C(=O)O)c4)o3)C(=N)N21, which IC50 is on record?
**A.** 18.3 µM (active)

**Q.** For CCCCCC#CCC#CCC#CCC#CCCCC(=O)O, which IC50 is on record?
**A.** 11.9 µM (active)
